Experiment [1] in a line: Self-reported erectogenic effect / blood flow when tumescent in subject (Examples 1 and 2). The experiment is classed as in vivo, human. The note with it: in conjunction with the 25 mg dosing of the anandamide CD formulation. The protocol: The subject had been taking various amounts of sildenafil for many years at 10-25 mg increments.
The subject of Example 1 determined that the combined use of these formulations permitted controlled dosing with bolus and/extended release regimens.

The target of another experiment is CB2 receptor (Mus musculus, UniProt P47936). The note with it: literature value, Lin et al., J Med Chem 1998; cited from earlier work.

Structures are written as SMILES.

Sequence of CB2 receptor (P47936 whole entry): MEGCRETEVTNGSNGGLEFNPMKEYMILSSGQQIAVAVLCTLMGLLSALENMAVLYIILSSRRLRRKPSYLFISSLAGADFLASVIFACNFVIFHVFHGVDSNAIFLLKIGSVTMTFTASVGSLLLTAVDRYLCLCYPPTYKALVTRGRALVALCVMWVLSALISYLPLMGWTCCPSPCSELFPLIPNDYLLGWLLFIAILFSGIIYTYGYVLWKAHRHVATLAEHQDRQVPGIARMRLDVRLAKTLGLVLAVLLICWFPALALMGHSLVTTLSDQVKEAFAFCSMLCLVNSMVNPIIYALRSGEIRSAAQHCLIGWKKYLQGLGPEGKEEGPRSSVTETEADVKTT

For `CCCc1nn(C)c2c(=O)[nH]c(-c3cc(S(=O)(=O)N4CCN(C)CC4)ccc3OCC)nc12` [sildenafil], the “effect of 10 mg sildenafil in conjunction with anandamide CD versus 25 mg sildenafil before anandamide CD supplementation” value in experiment [1] is reported as “more noticeable results”.

In general, Ki refers to a dissociation constant, usually derived from enzyme kinetics or from competition with a known ligand. On to `CCCCC/C=C\C/C=C\C/C=C\C/C=C\CCCC(=O)NCCO` [anandamide, (5Z,8Z,11Z,14Z)-N-(2-hydroxyethyl)icosa-5,8,11,14-tetraenamide], for which, on CB2 receptor, the Ki was over 1000 nM.

The values are drawn from patent US20250205181A1 (CZAP RESEARCH AND DEVELOPMENT, LLC, priority 2021, published 2025).
